In patent US20220227707A1, “COMPOUNDS AND COMPOSITIONS FOR TREATING CONDITIONS ASSOCIATED WITH NLRP ACTIVITY” (Novartis AG, priority 2019, published 2022):
pIC50: −log10 of the molar value.

Test system: IL-1β production in PMA-differentiated THP-1 cells
Test: IL-1β production in PMA-differentiated THP-1 cells stimulated with gramicidin (hTHP-1 assay)
Format: cell-based, human
Conditions: Average IC50, hTHP-1 assay containing 2% fetal bovine serum; Table 10, class symbols
Protocol: Procedure 1: IL-1β Production in PMA-Differentiated THP-1 Cells Stimulated with Gramicidin
THP-1 cells were purchased from the American Type Culture Collection and sub-cultured according to instructions from the supplier. Cells were cultured in complete RPMI 1640 (containing 10% heat inactivated FBS, penicillin (100 units/ml) and streptomycin (100 μg/ml)), and maintained in log phase prior to experimental setup. Prior to the experiment, compounds were dissolved in dimethyl sulfoxide (DMSO) to generate a 30 mM stock. The compound stock was first pre-diluted in DMSO to 3, 0.34, 0.042 and 0.0083 mM intermediate concentrations and subsequently spotted using Echo550 liquid handler into an empty 384-well assay plate to achieve desired final concentration (e.g. 100, 33, 11, 3.7, 1.2, 0.41, 0.14, 0.046, 0.015, 0.0051, 0.0017 μM). DMSO was backfilled in the plate to achieve a final DMSO assay concentration of 0.37%. The plate was then sealed and stored at room temperature until required.
THP-1 cells were treated with PMA (Phorbol 12-myristate 13-acetate) (20 ng/ml) for 16-18 hours. On the day of the experiment the media was removed and adherent cells were detached with trypsin for 5 minutes. Cells were then harvested, washed with complete RPMI 1640, spun down, and resuspended in RPMI 1640 (containing 2% heat inactivated FBS, penicillin (100 units/ml) and streptomycin (100 μg/ml). The cells were plated in the 384-well assay plate containing the spotted compounds at a density of 50,000 cells/well (final assay volume 50 μl). Cells were incubated with compounds for 1 hour and then stimulated with gramicidin (5 μM) (Enzo) for 2 hours. Plates were then centrifuged at 340 g for 5 min. Cell free supernatant ([…]) was collected using a 96-channel PlateMaster (Gilson) and the production of IL-1β was evaluated by HTRF (cisbio). The plates were incubated for 18 h at 4° C. and read using the preset HTRF program (donor emission at 620 nm, acceptor emission at 668 nm) of the SpectraMax i3x spectrophotometer (Molecular Devices, software SoftMax 6). A vehicle only control and a dose titration of CRID3 (100-0.0017 μM) were run concurrently with each experiment.
Procedure 2: […] Production in PMA-Differentiated THP-1 Cells Stimulated with Gramicidin
THP-1 cells were purchased from the American Type Culture Collection and sub-cultured according to instructions from the supplier. Prior to experiments, cells were cultured in complete RPMI 1640 (containing 10% heat inactivated FBS, penicillin (100 units/ml) and streptomycin (100 μg/ml)), and maintained in log phase prior to experimental setup. Prior to the experiment THP-1 were treated with PMA (Phorbol 12-myristate 13-acetate) (20 ng/ml) for 16-18 hours. Compounds were dissolved in dimethyl sulfoxide (DMSO) to generate a 30 mM stock. On the day of the experiment the media was removed and adherent cells were detached with trypsin for 5 minutes. Cells were then harvested, washed with complete RPMI 1640, spun down, resuspended in RPMI 1640 (containing 2% heat inactivated FBS, penicillin (100 units/ml) and streptomycin (100 μg/ml). The cells were plated in a 384-well plate at a density of 50,000 cells/well (final assay volume 50 μl). Compounds were first dissolved in assay medium to obtain a 5× top concentration of 500 μM. 10 step dilutions (1:3) were then undertaken in assay medium containing 1.67% DMSO. 5× compound solutions were added to the culture medium to achieve desired final concentration (e.g. 100, 33, 11, 3.7, 1.2, 0.41, 0.14, 0.046, 0.015, 0.0051, 0.0017 μM). Final DMSO concentration was at 0.37%. Cells were incubated with compounds for 1 hour and then stimulated with gramicidin (5 μM) (Enzo) for 2 hours. Plates were then centrifuged at 340 g for 5 min. Cell free supernatant (40 μL) was collected using a 96-channel PlateMaster (Gilson) and the production of IL-1β was evaluated by HTRF (cisbio). A vehicle only control and a dose titration of CRID3 (100-0.0017 μM) were run concurrently with each experiment. […]

pIC50	SMILES
4.52 to 5.30	CC(CN(C)C)CS(N)(=O)=NC(=O)Nc1c2c(cc3c1CCC3)CCC2 (stereo not drawn) [Compound 123, 3-(dimethylamino)-N′-((1,2,3,5,6,7-hexahydro-s-indacen-4-yl)carbamoyl)-2-methylpropane-1-sulfonimidamide]
5.30 to 6.00	CC(CN(C)C)CS(N)(=O)=NC(=O)Nc1c2c(cc3c1CCC3)CCC2 (stereo not drawn) [Compound 125, 3-(dimethylamino)-N′-((1,2,3,5,6,7-hexahydro-s-indacen-4-yl)carbamoyl)-2-methylpropane-1-sulfonimidamide]
4.52 to 5.30	CN(C)CCCS(N)(=O)=NC(=O)Nc1c2c(cc3c1CCC3)CCC2 (stereo not drawn) [Compound 144]

Same assay, conditions: Average IC50, hTHP-1 assay containing 2% fetal bovine serum; Table 10, numeric values

pIC50	SMILES
< 4.52	CN1CCC(S(N)(=O)=NC(=O)Nc2c3c(cc4c2CCC4)CCC3)CC1 (stereo not drawn) [Compound 138]
< 4.52	CN1CCC(S(N)(=O)=NC(=O)Nc2c3c(cc4c2CCC4)CCC3)CC1 (stereo not drawn) [Compound 140]
< 4.52	NS(=O)(=NC(=O)Nc1c2c(cc3c1CCC3)CCC2)C1CCCCC1 (stereo not drawn) [Compound 148]
< 4.52	NS(=O)(=NC(=O)Nc1c2c(cc3c1CCC3)CCC2)C1CCCCC1 (stereo not drawn) [Compound 150]
< 4.52	NS(=O)(=NC(=O)Nc1c2c(cc3c1CCC3)CCC2)C1CCCC1 (stereo not drawn) [Compound 152]
< 4.52	CN(C)CC1(S(N)(=O)=NC(=O)Nc2c3c(cc4c2CCC4)CCC3)CC1 (stereo not drawn) [Compound 159]
< 4.52	CN(C)CC1(S(N)(=O)=NC(=O)Nc2c3c(cc4c2CCC4)CCC3)CC1 (stereo not drawn) [Compound 160]
< 4.52	CC1(S(N)(=O)=NC(=O)Nc2c3c(cc4c2CCC4)CCC3)CC1 (stereo not drawn) [Compound 163]
< 4.52	CC(C)c1cc(F)cc(C(C)C)c1CC(=O)N=S(N)(=O)CCCN(C)C (stereo not drawn) [Compound 302]
< 4.52	CC(C)c1cc(F)cc(C(C)C)c1CC(=O)N=S(N)(=O)CCCN(C)C (stereo not drawn) [Compound 303]
< 4.52	CC(C)c1cc(F)cc(C(C)C)c1CC(=O)N=S(N)(=O)C1CCCC1 (stereo not drawn) [Compound 305]
< 4.52	CC(C)c1cc(F)cc(C(C)C)c1CC(=O)N=S(N)(=O)C1CCCC1 (stereo not drawn) [Compound 306]
< 4.52	CC(C)c1cc(F)cc(C(C)C)c1CC(=O)N=S(N)(=O)C1CC1 (stereo not drawn) [Compound 309]

Same assay, conditions: Homo sapiens, THP-1, Average IC50, hTHP-1 assay containing 2% fetal bovine serum; Table 3B, class symbols

pIC50	SMILES
4.52 to 5.30	CC(C)c1cc(C#N)cc(C(C)C)c1CC(=O)NS(=O)(=O)N1CCCCC1 [Compound 201B, 2-(4-cyano-2,6-diisopropylphenyl)-N-(piperidin-1-ylsulfonyl)acetamide]
4.52 to 5.30	CC(C)c1cc(C#N)cc(C(C)C)c1CC(=O)NS(=O)(=O)N1CCC(CN(C)C)CC1 [Compound 202B, 2-(4-cyano-2,6-diisopropylphenyl)-N-((4-((dimethylamino)methyl)piperidin-1-yl)sulfonyl) acetamide]
4.52 to 5.30	CC(C)c1cc(C#N)cc(C(C)C)c1CC(=O)NS(=O)(=O)N1CCC(C(C)(C)O)C1 (stereo not drawn) [Compound 203B]

Same assay, conditions: Homo sapiens, THP-1, Average IC50, hTHP-1 assay containing 2% fetal bovine serum; Table 10, class symbols

pIC50	SMILES
4.52 to 5.30	NS(=O)(=NC(=O)Nc1c2c(cc3c1CCC3)CCC2)C1Cc2ccccc2C1 (stereo not drawn) [Compound 139, N′-((1,2,3,5,6,7-hexahydro-s-indacen-4-yl)carbamoy1)-2,3-dihydro-1H-indene-2-sulfonimidamide]
4.52 to 5.30	CN(C)CCCS(N)(=O)=NC(=O)Nc1c2c(cc3c1CCC3)CCC2 (stereo not drawn) [Compound 141]
4.52 to 5.30	NS(=O)(=NC(=O)Nc1c2c(cc3c1CCC3)CCC2)C1CCCC1 (stereo not drawn) [Compound 153]
6.00 to 6.70	CC1(S(N)(=O)=NC(=O)Nc2c3c(cc4c2CCC4)CCC3)CC1 (stereo not drawn) [Compound 162]
4.52 to 5.30	CN(C)Cc1cccc(CS(N)(=O)=NC(=O)Nc2c3c(cc4c2CCC4)CCC3)c1 (stereo not drawn) [Compound 164, 1-(3-((dimethylamino)methyl)pheny1)-N′-((1,2,3,5,6,7-hexahydro-s-indacen-4-yl)carbamoyl) methane-sulfonimidamide]
6.00 to 6.70	CC(C)(O)c1ccc(CS(N)(=O)=NC(=O)Nc2c3c(cc4c2CCC4)CCC3)cc1 (stereo not drawn) [Compound 165, N′-((1,2,3,5,6,7-hexahydro-s-indacen-4-yl)carbamoyl)-1-(4-(2-hydroxypropan-2-yl)phenyl)methane-sulfonimidamide]
7.40 to 8.10	CC(C)c1cc(F)cc(C(C)C)c1CC(=O)N=S(N)(=O)C1CC1 (stereo not drawn) [Compound 307]
4.52 to 5.30	CC(C)c1cccc(C(C)C)c1NC(=O)NS(=O)(=O)CC(O)c1ccsc1 (stereo not drawn) [Compound 402]
4.52 to 5.30	CC(C)c1cc(Cl)cc(C(C)C)c1NC(=O)NS(=O)(=O)CC(=O)c1ccsc1 [Compound 403]
5.30 to 6.00	COC(=O)CCS(=O)(=O)NC(=O)Cc1c2c(cc3c1CCC3)CCC2 [Compound 504]
4.52 to 5.30	CC(C)c1cc(F)cc(C(C)C)c1CC(=O)NS(=O)(=O)Cc1ccc(C(C)(C)O)cc1 [Compound 506]

Same assay, conditions: Homo sapiens, THP-1, Average IC50, hTHP-1 assay containing 2% fetal bovine serum; Table 10, numeric values

pIC50	SMILES
< 4.52	CC(CN(C)C)CS(N)(=O)=NC(=O)Nc1c2c(cc3c1CCC3)CCC2 (stereo not drawn) [Compound 126, 3-(dimethylamino)-N′-((1,2,3,5,6,7-hexahydro-s-indacen-4-yl)carbamoyl)-2-methylpropane-1-sulfonimidamide]
< 4.52	CN1CCC(S(N)(=O)=NC(=O)Nc2c3c(cc4c2CCC4)CCC3)CC1 (stereo not drawn) [Compound 137]
< 4.52	NS(=O)(=NC(=O)Nc1c2c(cc3c1CCC3)CCC2)C1CCCCC1 (stereo not drawn) [Compound 147]
< 4.52	NS(=O)(=NC(=O)Nc1c2c(cc3c1CCC3)CCC2)C1CCC1 (stereo not drawn) [Compound 149, N′-((1,2,3,5,6,7-hexahydro-s-indacen-4-yl)carbamoyl) cyclobutane-sulfonimidamide]
< 4.52	NS(=O)(=NC(=O)Nc1c2c(cc3c1CCC3)CCC2)C1CCCC1 (stereo not drawn) [Compound 151]
< 4.52	NS(=O)(=NC(=O)Nc1c2c(cc3c1CCC3)CCC2)C1CC1 (stereo not drawn) [Compound 156, N′-((1,2,3,5,6,7-hexahydro-s-indacen-4-yl)carbamoyl) cyclopropane-sulfonimidamide]
< 4.52	CN(C)CC1(S(N)(=O)=NC(=O)Nc2c3c(cc4c2CCC4)CCC3)CC1 (stereo not drawn) [Compound 158]
< 4.52	CC1(S(N)(=O)=NC(=O)Nc2c3c(cc4c2CCC4)CCC3)CC1 (stereo not drawn) [Compound 161]
< 4.52	CC(C)c1cc(F)cc(C(C)C)c1CC(=O)N=S(N)(=O)CCCN(C)C (stereo not drawn) [Compound 301]
< 4.52	CC(C)c1cc(F)cc(C(C)C)c1CC(=O)N=S(N)(=O)C1CCCC1 (stereo not drawn) [Compound 304]
< 4.52	CC(C)c1cc(F)cc(C(C)C)c1CC(=O)N=S(N)(=O)C1CC1 (stereo not drawn) [Compound 308]
4.50	CC(C)c1cc(F)cc(C(C)C)c1NC(=O)NS(=O)(=O)C1CC1 [Compound 401]
< 4.00	COC(=O)CS(=O)(=O)NC(=O)Cc1c(C(C)C)cc(F)cc1C(C)C [Compound 501]
< 4.00	CC(C)c1cc(F)cc(C(C)C)c1CC(=O)NS(=O)(=O)Cc1cccc(C(C)(C)O)c1 [Compound 502]
< 4.00	CC(C)c1cc(F)cc(C(C)C)c1CC(=O)NS(=O)(=O)CC(=O)O [Compound 503]
< 4.01	CC(C)c1ncc(CS(=O)(=O)NC(=O)Cc2c(C(C)C)cc(F)cc2C(C)C)s1 [Compound 505]
< 4.00	CC(C)c1cc(F)cc(C(C)C)c1CC(=O)NS(=O)(=O)Cc1ccc(CN)cc1 [Compound 507]
< 4.00	CC(C)c1cc(F)cc(C(C)C)c1CC(=O)NS(=O)(=O)Cc1cccc(CN)c1 [Compound 508]
